Earlier results as cited in patent US20140309164A1, “DEUTERATED NUCLEOSIDE PRODRUGS USEFUL FOR TREATING HCV” (priority 2013, published 2014).

Key:
[1] = pulled from clinical trials
HCV = settings: percent of the trial participants; several large clinical trials

Compound: COc1nc(N)nc2c1ncn2[C@@H]1O[C@H](COP(=O)(N[C@@H](C)C(=O)OCC(C)(C)C)Oc2cccc3ccccc23)[C@@H](O)[C@@]1(C)O (some centres unmarked) [BMS-986094]
- fatal adverse event in clinical trials [1]: death of a patient due to heart failure

Compound: CC(C)OC(=O)[C@H](C)NP(=O)(OC[C@H]1O[C@@H](n2ccc(=O)[nH]c2=O)C(C)(F)C1O)Oc1ccccc1 (some centres unmarked) [Sovaldi, Sofosbuvir]
- sustained viral response (SVR) of twelve weeks (HCV): 50-90%

Compound: CC(C)OC(=O)[C@H](C)NP(=S)(OC[C@H]1O[C@@H](n2ccc(=O)[nH]c2=O)[C@](C)(O)[C@@H]1O)Oc1ccccc1 (some centres unmarked) [VX-135]
- sustained viral response rate four weeks after the completion of treatment (SVR4), intent-to-treat analysis (HCV genotype 1; 200 mg VX-135 in combination with daclatasvir, treatment-naive genotype 1, 10 of 12): 83%
- completion of treatment rate (SVR4) (HCV genotype 1; eleven patients who completed 12 weeks of treatment, VX-135 in combination with daclatasvir): 91%
- serious adverse event (HCV genotype 1; one patient, VX-135 in combination with daclatasvir): serious adverse event of vomiting/nausea
